Test results: patent US20200216439A1, “HETERO-1,5,6,7-TETRAHYDRO-4H-INDOL-4-ONES” (BAYER PHARMA AKTIENGESELLSCHAFT, priority 2015, published 2020)

What follows are compounds tested against T1, catalytic domain of human Bub1 (amino acids 704-1085) (Homo sapiens, UniProt O43683) (assay: Bub1 kinase assay (TR-FRET)). Conditions: TR-FRET; ATP 10 μM, peptide substrate 1 μM; 60 min at 22° C.; average or median if tested more than once; read-out: Inhibition of Bub1 kinase IC50.
T1 construct: catalytic domain of human Bub1 (amino acids 704-1085); His6 (N); made in house; host or cells: Hi5 insect cells
Format: biochemical
From the text: Bub1-inhibitory activities of compounds described in the present invention were quantified using a time-resolved fluorescence energy transfer (TR-FRET) kinase assay which measures phosphorylation of the synthetic peptide Biotin-Ahx-VLLPKKSFAEPG (C-terminus in amide form), purchased from e.g. Biosyntan (Berlin, Germany) by the (recombinant) catalytic domain of human Bub1 (amino acids 704-1085), expressed in Hi5 insect cells with an N-terminal His6-tag and purified by affinity—(Ni-NTA) and size exclusion chromatography.
In a typical assay 11 different concentrations of each compound (0.1 nM, 0.33 nM, 1.1 nM, 3.8 nM, 13 nM, 44 nM, 0.15 μM, 0.51 μM, 1.7 μM, 5.9 μM and 20 μM) were tested in duplicate within the same microtiter plate. To this end, 100-fold concentrated compound solutions (in DMSO) were previously prepared by serial dilution (1:3.4) of 2 mM stocks in a clear low volume 384-well source microtiter plate (Greiner Bio-One, Frickenhausen, Germany), from which 50 nl of compounds were transferred into a black low volume test microtiter plate from the same supplier. Subsequently, 2 μL of Bub1 (the final concentration of Bub1 was adjusted depending on the activity of the enzyme lot in order to be within the linear dynamic range of the assay: typically ˜200 ng/mL were used) in aqueous assay buffer [50 mM Tris/HCl pH 7.5, 10 mM magnesium chloride (MgCl2), 200 mM potassium chloride (KCl), 1.0 mM dithiothreitol (DTT), 0.1 mM sodium ortho-vanadate, 1% (v/v) glycerol, 0.01% (w/v) bovine serum albumine (BSA), 0.005% (v/v) Trition X-100 (Sigma), 1× Complete EDTA-free protease inhibitor mixture (Roche)] were added to the compounds in the test plate and the mixture was incubated for 15 min at 22° C. to allow pre-equilibration of the putative enzyme-inhibitor complexes before the start of the kinase reaction, which was initiated by the addition of 3 μL 1.67-fold concentrated solution (in assay buffer) of adenosine-tri-phosphate (ATP, 10 μM final concentration) and peptide substrate (1 μM final concentration). The resulting mixture (5 μL final volume) was incubated at 22° C. during 60 min., and the reaction was stopped by the addition of 5 μL of an aqueous EDTA-solution (50 mM EDTA, in 100 mM HEPES pH 7.5 and 0.2% (w/v) bovine serum albumin) which also contained the TR-FRET detection reagents (0.2 μM streptavidin-XL665 [Cisbio Bioassays, Codolet, France] and 1 nM anti-phospho-Serine antibody [Merck Millipore, cat. #35-002] and 0.4 nM LANCE EU-W1024 labeled anti-mouse IgG antibody [Perkin-Elmer, product no. AD0077, alternatively a Terbium-cryptate-labeled anti-mouse IgG antibody from Cisbio Bioassays can be used]). The stopped reaction mixture was further incubated 1 h at 22° C. in order to allow the formation of complexes between peptides and detection reagents. Subsequently, the amount of product was evaluated by measurement of the resonance energy transfer from the Eu-chelate-antibody complex recognizing the Phosphoserine residue to the streptavidin-XL665 bound to the biotin moiety of the peptide. To this end, the fluorescence emissions at 620 nm and 665 nm after excitation at 330-350 nm were measured in a TR-FRET plate reader, e.g. a Rubystar or Pherastar (both from BMG Labtechnologies, Offenburg, Germany) or a Viewlux (Perkin-Elmer) and the ratio of the emissions (665 nm/[…]) was taken as indicator for the amount of phosphorylated substrate. The data were normalised using two sets of control wells for high—(=enzyme reaction without inhibitor=0%=Minimum inhibition) and low—(=all assay components without enzyme=100%=Maximum inhibition) Bub1 activity. IC50 values were calculated by fitting the normalized inhibition data to a 4-parameter logistic equation (Minimum, Maximum, IC50, Hill; Y=Max+(Min−Max)/(1+(X/IC50)Hill)).

T1 sequence (O43683 704-1085): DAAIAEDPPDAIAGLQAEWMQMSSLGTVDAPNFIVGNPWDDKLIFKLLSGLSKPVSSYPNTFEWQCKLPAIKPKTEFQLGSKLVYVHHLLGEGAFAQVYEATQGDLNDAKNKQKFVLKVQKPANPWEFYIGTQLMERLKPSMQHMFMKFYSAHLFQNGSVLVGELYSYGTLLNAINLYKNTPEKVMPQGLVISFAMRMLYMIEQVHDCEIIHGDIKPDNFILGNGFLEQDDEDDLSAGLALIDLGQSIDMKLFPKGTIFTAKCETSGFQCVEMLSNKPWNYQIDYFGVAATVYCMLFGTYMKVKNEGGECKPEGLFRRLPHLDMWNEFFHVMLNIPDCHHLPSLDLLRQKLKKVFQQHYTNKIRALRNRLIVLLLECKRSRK

Structure (SMILES) | IC50 [nM]
O=C1COCc2[nH]c(-c3ccncc3)c(Nc3ccccc3)c21 [Example 6, 3-(phenylamino)-2-(pyridin-4-yl)-1,7-dihydropyrano[3,4-b]pyrrol-4(5H)-one] | 42
Cc1nccc(-c2[nH]c3c(c2Nc2ccccc2)C(=O)CN(C(=O)OC(C)(C)C)C3)n1 [Example 12, tert-Butyl 2-(2-methylpyrimidin-4-yl)-4-oxo-3-(phenylamino)-1,4,5,7-tetrahydro-6H-pyrrolo[2,3-c]pyridine-6-carboxylate] | 102
CC(C)(C)OC(=O)N1CC(=O)c2c([nH]c(-c3ccnc(N)c3)c2Nc2ccccc2)C1 [Example 13, tert-Butyl 2-(2-aminopyridin-4-yl)-4-oxo-3-(phenylamino)-1,4,5,7-tetrahydro-6H-pyrrolo[2,3-c]pyridine-6-carboxylate] | 40
O=C1CNCc2[nH]c(-c3ccncc3)c(Nc3ccccc3)c21 [Example 14] | 47
Cc1nccc(-c2[nH]c3c(c2Nc2ccccc2)C(=O)COC3)n1 [Example 15, 2-(2-Methylpyrimidin-4-yl)-3-(phenylamino)-1,7-dihydropyrano[3,4-b]pyrrol-4(5H)-one] | 1200
Cc1nccc(-c2[nH]c3c(c2Nc2ccccc2)C(=O)CNC3)n1 [Example 16, 2-(2-Methylpyrimidin-4-yl)-3-(phenylamino)-1,5,6,7-tetrahydro-4H-pyrrolo[2,3-c]pyridin-4-one] | 949
O=C1C[S+]([O-])Cc2[nH]c(-c3ccncc3)c(Nc3ccccc3)c21 (stereo not shown) [Example 20, 3-(phenylamino)-2-(pyridin-4-yl)-1,7-dihydrothiopyrano[3,4-b]pyrrol-4(5H)-one 6-oxide] | 152
Nc1cc(-c2[nH]c3c(c2Nc2ccccc2)C(=O)CNC3)ccn1 [Example 21, 2-(2-Aminopyridin-4-yl)-3-(phenylamino)-1,5,6,7-tetrahydro-4H-pyrrolo[2,3-c]pyridin-4-one] | 794
Nc1cc(-c2[nH]c3c(c2Nc2ccccc2)C(=O)COC3)ccn1 [Example 22, 2-(2-Aminopyridin-4-yl)-3-(phenylamino)-1,7-dihydropyrano[3,4-b]pyrrol-4(5H)-one] | 503
CC(=O)Nc1cc(-c2[nH]c3c(c2Nc2ccccc2)C(=O)CN(C(=O)OC(C)(C)C)C3)ccn1 [Example 23, tert-Butyl 2-[2-(acetylamino)pyridin-4-yl]4-oxo-3-(phenylamino)-1,4,5,7-tetrahydro-6H-pyrrolo[2,3-c]pyridine-6-carboxylate] | 1660
CC(=O)Nc1cc(-c2[nH]c3c(c2Nc2ccccc2)C(=O)CNC3)ccn1 [Example 24, N-{4-[4-Oxo-3-(phenylamino)-4,5,6,7-tetrahydro-1H-pyrrolo[2,3-c]pyridin-2-yl]pyridin-2-yl}acetamide] | 154
CCNC(=O)N1CC(=O)c2c([nH]c(-c3ccnc(C)n3)c2Nc2ccccc2)C1 [Example 25, N-Ethyl-2-(2-methylpyrimidin-4-yl)-4-oxo-3-(phenylamino)-1,4,5,7-tetrahydro-6H-pyrrolo[2,3-c]pyridine-6-carboxamide] | 254
CC(=O)N1CC(=O)c2c([nH]c(-c3ccnc(C)n3)c2Nc2ccccc2)C1 [Example 26, 6-Acetyl-2-(2-methylpyrimidin-4-yl)-3-(phenylamino)-1,5,6,7-tetrahydro-4H-pyrrolo[2,3-c]pyridin-4-one] | 97
COC(=O)N1CC(=O)c2c([nH]c(-c3ccnc(C)n3)c2Nc2ccccc2)C1 [Example 27, Methyl 2-(2-methylpyrimidin-4-yl)-4-oxo-3-(phenylamino)-1,4,5,7-tetrahydro-6H-pyrrolo[2,3-c]pyridine-6-carboxylate] | 59

These reach a lower IC50. Values come first.

IC50 [nM] | Structure (SMILES)
24 | Cc1nccc(-c2[nH]c3c(c2Nc2ccccc2)C(=O)CN(S(C)(=O)=O)C3)n1 [Example 29, 2-(2-Methylpyrimidin-4-yl)-6-(methylsulfonyl)-3-(phenylamino)-1,5,6,7-tetrahydro-4H-pyrrolo[2,3-c]pyridin-4-one]
19 | O=C1CSCc2[nH]c(-c3ccncc3)c(Nc3ccccc3)c21 [Example 4, 3-(phenylamino)-2-(pyridin-4-yl)-1,7-dihydrothiopyrano[3,4-b]pyrrol-4(5H)-one]
13 | CCNC(=O)N1CC(=O)c2c([nH]c(-c3ccnc(NC(C)=O)c3)c2Nc2ccccc2)C1 [Example 28]
10 | CC(C)(C)OC(=O)N1CC(=O)c2c([nH]c(-c3ccncc3)c2Nc2ccccc2)C1 [Example 3, tert-Butyl 4-oxo-3-(phenylamino)-2-(pyridin-4-yl)-1,4,5,7-tetrahydro-6H-pyrrolo[2,3-c]pyridine-6-carboxylate]
8 | CC(C)(C)OC(=O)N1CC(=O)c2c([nH]c(-c3ccncc3F)c2Nc2ccccc2)C1 [Example 11, tert-Butyl 2-(3-fluoropyridin-4-yl)-4-oxo-3-(phenylamino)-1,4,5,7-tetrahydro-6H-pyrrolo[2,3-c]pyridine-6-carboxylate]
8 | CS(=O)(=O)N1CC(=O)c2c([nH]c(-c3ccncc3)c2Nc2ccccc2)C1 [Example 19, 6-(Methylsulfonyl)-3-(phenylamino)-2-(pyridin-4-yl)-1,5,6,7-tetrahydro-4H-pyrrolo[2,3-c]pyridin-4-one]
7 | CC(=O)Nc1cc(-c2[nH]c3c(c2Nc2ccccc2)C(=O)CN(C(=O)C2CC2)C3)ccn1 [Example 30, N-{4-[6-(Cyclopropylcarbonyl)-4-oxo-3-(phenylamino)-4,5,6,7-tetrahydro-1H-pyrrolo[2,3-c]pyridin-2-yl]pyridin-2-yl}acetamide]
6 | CCNC(=O)N1CC(=O)c2c([nH]c(-c3ccncc3)c2Nc2ccccc2)C1 [Example 10, N-Ethyl-4-oxo-3-(phenylamino)-2-(pyridin-4-yl)-1,4,5,7-tetrahydro-6H-pyrrolo[2,3-c]pyridine-6-carboxamide]
6 | CC(C)C(=O)N1CC(=O)c2c([nH]c(-c3ccncc3)c2Nc2ccccc2)C1 [Example 17]
6 | COC(=O)N1CC(=O)c2c([nH]c(-c3ccncc3)c2Nc2ccccc2)C1 [Example 18, Methyl 4-oxo-3-(phenylamino)-2-(pyridin-4-yl)-1,4,5,7-tetrahydro-6H-pyrrolo[2,3-c]pyridine-6-carboxylate]
5 | O=C1CN(C(=O)C2CC2)Cc2[nH]c(-c3ccncc3)c(Nc3ccccc3)c21 [Example 5, 6-(Cyclopropylcarbonyl)-3-(phenylamino)-2-(pyridin-4-yl)-1,5,6,7-tetrahydro-4H-pyrrolo[2,3-c]pyridin-4-one]
4 | CC(=O)N1CC(=O)c2c([nH]c(-c3ccncc3)c2Nc2ccccc2)C1 [Example 7, 6-Acetyl-3-(phenylamino)-2-(pyridin-4-yl)-1,5,6,7-tetrahydro-4H-pyrrolo[2,3-c]pyridin-4-one]
4 | CCC(=O)N1CC(=O)c2c([nH]c(-c3ccncc3)c2Nc2ccccc2)C1 [Example 8, 3-(phenylamino)-6-propanoyl-2-(pyridin-4-yl)-1,5,6,7-tetrahydro-4H-pyrrolo[2,3-c]pyridin-4-one]
4 | CC(C)(C)C(=O)N1CC(=O)c2c([nH]c(-c3ccncc3)c2Nc2ccccc2)C1 [Example 9, 6-(2,2-Dimethylpropanoyl)-3-(phenylamino)-2-(pyridin-4-yl)-1,5,6,7-tetrahydro-4H-pyrrolo[2,3-c]pyridin-4-one]
